According to PMC10620772, “Design, synthesis, and biological evaluation of new pyrimidine-5-carbonitrile derivatives as novel anti-cancer, dual EGFR^WT/COX-2 inhibitors with docking studies” (RSC Advances, 2023):

What was measured:
Type in all cases: cell-based, human
CCRF-CEM = assay: NCI60 antitumor screening; conditions: Homo sapiens; 10 μM single dose; CCRF-CEM (leukaemia); read-out: growth inhibition percent (GI%)
HL-60(TB) = assay: NCI60 antitumor screening; conditions: Homo sapiens; 10 μM single dose; HL-60(TB) (leukaemia); read-out: growth inhibition percent (GI%)
RPMI-8226 = assay: NCI60 antitumor screening; conditions: Homo sapiens; 10 μM single dose; RPMI-8226 (leukaemia); read-out: growth inhibition percent (GI%)
EKVX = assay: NCI60 antitumor screening; conditions: Homo sapiens; 10 μM single dose; EKVX (non-small cell lung cancer); read-out: growth inhibition percent (GI%)
HOP-62 = assay: NCI60 antitumor screening; conditions: Homo sapiens; 10 μM single dose; HOP-62 (non-small cell lung cancer); read-out: growth inhibition percent (GI%)
NCI-H23 = assay: NCI60 antitumor screening; conditions: Homo sapiens; 10 μM single dose; NCI-H23 (non-small cell lung cancer); read-out: growth inhibition percent (GI%)
NCI-H460 = assay: NCI60 antitumor screening; conditions: Homo sapiens; 10 μM single dose; NCI-H460 (non-small cell lung cancer); read-out: growth inhibition percent (GI%)
NCI-H522 = assay: NCI60 antitumor screening; conditions: Homo sapiens; 10 μM single dose; NCI-H522 (non-small cell lung cancer); read-out: growth inhibition percent (GI%)
COLO 205 = assay: NCI60 antitumor screening; conditions: Homo sapiens; 10 μM single dose; COLO 205 (colon cancer); read-out: growth inhibition percent (GI%)
HCC-2998 = assay: NCI60 antitumor screening; conditions: Homo sapiens; 10 μM single dose; HCC-2998 (colon cancer); read-out: growth inhibition percent (GI%)
HCT-116 = assay: NCI60 antitumor screening; conditions: Homo sapiens; 10 μM single dose; HCT-116 (colon cancer); read-out: growth inhibition percent (GI%)
HT29 = assay: NCI60 antitumor screening; conditions: Homo sapiens, HT-29; 10 μM single dose; HT29 (colon cancer); read-out: growth inhibition percent (GI%)
SNB-19 = assay: NCI60 antitumor screening; conditions: Homo sapiens; 10 μM single dose; SNB-19 (CNS cancer); read-out: growth inhibition percent (GI%)
SNB-75 = assay: NCI60 antitumor screening; conditions: Homo sapiens; 10 μM single dose; SNB-75 (CNS cancer); read-out: growth inhibition percent (GI%)
U251 = assay: NCI60 antitumor screening; conditions: Homo sapiens, U-251; 10 μM single dose; U251 (CNS cancer); read-out: growth inhibition percent (GI%)
LOX IMVI = assay: NCI60 antitumor screening; conditions: Homo sapiens; 10 μM single dose; LOX IMVI (melanoma); read-out: growth inhibition percent (GI%)
M14 = assay: NCI60 antitumor screening; conditions: Homo sapiens; 10 μM single dose; M14 (melanoma); read-out: growth inhibition percent (GI%)
SK-MEL-28 = assay: NCI60 antitumor screening; conditions: Homo sapiens; 10 μM single dose; SK-MEL-28 (melanoma); read-out: growth inhibition percent (GI%)
IGROV1 = assay: NCI60 antitumor screening; conditions: Homo sapiens, IGROV-1; 10 μM single dose; IGROV1 (ovarian cancer); read-out: growth inhibition percent (GI%)
OVCAR-3 = assay: NCI60 antitumor screening; conditions: Homo sapiens; 10 μM single dose; OVCAR-3 (ovarian cancer); read-out: growth inhibition percent (GI%)
NCI/ADR-RES = assay: NCI60 antitumor screening; conditions: Homo sapiens; 10 μM single dose; NCI/ADR-RES (ovarian cancer); read-out: growth inhibition percent (GI%)
786–0 = assay: NCI60 antitumor screening; conditions: Homo sapiens; 10 μM single dose; 786–0 (renal cancer); read-out: growth inhibition percent (GI%)
A498 = assay: NCI60 antitumor screening; conditions: Homo sapiens; 10 μM single dose; A498 (renal cancer); read-out: growth inhibition percent (GI%)
ACHN = assay: NCI60 antitumor screening; conditions: Homo sapiens; 10 μM single dose; ACHN (renal cancer); read-out: growth inhibition percent (GI%)
RXF 393 = assay: NCI60 antitumor screening; conditions: Homo sapiens; 10 μM single dose; RXF 393 (renal cancer); read-out: growth inhibition percent (GI%)
SN12C = assay: NCI60 antitumor screening; conditions: Homo sapiens; 10 μM single dose; SN12C (renal cancer); read-out: growth inhibition percent (GI%)
TK-10 = assay: NCI60 antitumor screening; conditions: Homo sapiens; 10 μM single dose; TK-10 (renal cancer); read-out: growth inhibition percent (GI%)
UO-31 = assay: NCI60 antitumor screening; conditions: Homo sapiens; 10 μM single dose; UO-31 (renal cancer); read-out: growth inhibition percent (GI%)
PC-3 = assay: NCI60 antitumor screening; conditions: Homo sapiens; 10 μM single dose; PC-3 (prostate cancer); read-out: growth inhibition percent (GI%)
DU-145 = assay: NCI60 antitumor screening; conditions: Homo sapiens, DU-145; read-out: growth inhibition percent (GI%)
BT-549 = assay: NCI60 antitumor screening; conditions: Homo sapiens; 10 μM single dose; BT-549 (breast cancer); read-out: growth inhibition percent (GI%)
T-47D = assay: NCI60 antitumor screening; conditions: Homo sapiens, T47D; 10 μM single dose; T-47D (breast cancer); read-out: growth inhibition percent (GI%)
NCI60 cell lines panel = assay: NCI60 antitumor screening, full panel; conditions: for inhibition at 10 µM: Homo sapiens, 10 μM single dose, mean over NCI60 cell lines, read-out: Mean growth inhibition percent (GI%)
How it was run: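 Single-concentration screen at 10 μM across the NCI60 panel (leukaemia, NSCLC, colon, CNS, melanoma, ovarian, renal, prostate, breast). Results are expressed as percent growth inhibition (GI%) of treated lines.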

SMILES	inhibition at 10 µM (CCRF-CEM)	inhibition at 10 µM (HL-60(TB))	inhibition at 10 µM (RPMI-8226)	inhibition at 10 µM (EKVX)	inhibition at 10 µM (HOP-62)	inhibition at 10 µM (NCI-H23)	inhibition at 10 µM (NCI-H460)	inhibition at 10 µM (NCI-H522)	inhibition at 10 µM (COLO 205)	inhibition at 10 µM (HCC-2998)	inhibition at 10 µM (HCT-116)	inhibition at 10 µM (HT29)	inhibition at 10 µM (SNB-19)	inhibition at 10 µM (SNB-75)	inhibition at 10 µM (U251)	inhibition at 10 µM (LOX IMVI)	inhibition at 10 µM (M14)	inhibition at 10 µM (SK-MEL-28)	inhibition at 10 µM (IGROV1)	inhibition at 10 µM (OVCAR-3)	further results
Cc1ccc(CSc2nc(-c3ccc(F)cc3)c(C#N)c(N3CCN(c4ccccc4)CC3)n2)cc1 [4p, 4-(4-Fluorophenyl)-2-((4-methylbenzyl)thio)-6-(4-phenylpiperazin-1-yl) pyrimidine-5-carbonitrile]	< 10%	< 10%	18.4%	20.3%	< 10%	< 10%	< 10%	13.8%	12.2%	< 10%	15.1%	< 10%	< 10%	14.8%	< 10%	< 10%	11%	< 10%	< 10%	< 10%	inhibition at 10 µM (NCI/ADR-RES): < 10%; inhibition at 10 µM (786–0): < 10%; inhibition at 10 µM (A498): < 10%; inhibition at 10 µM (ACHN): < 10%; inhibition at 10 µM (RXF 393): < 10%; inhibition at 10 µM (SN12C): < 10%; inhibition at 10 µM (TK-10): < 10%; inhibition at 10 µM (UO-31): < 10%; inhibition at 10 µM (PC-3): 25.1%; inhibition at 10 µM (DU-145): < 10%; inhibition at 10 µM (BT-549): < 10%; inhibition at 10 µM (T-47D): 12.3%; inhibition at 10 µM (NCI60 cell lines panel): < 10%
N#Cc1c(-c2ccc(F)cc2)nc(SCc2ccccc2)nc1N1CCN(c2ccccc2)CC1 [4m, 2-(Benzylthio)-4-(4-fluorophenyl)-6-(4-phenylpiperazin-1-yl) pyrimidine-5-carbonitrile]	11.1%	< 10%	14.2%	< 10%	< 10%	< 10%	< 10%	< 10%	< 10%	< 10%	< 10%	< 10%	< 10%	< 10%	< 10%	< 10%	< 10%	< 10%	< 10%	< 10%	inhibition at 10 µM (NCI/ADR-RES): < 10%; inhibition at 10 µM (786–0): < 10%; inhibition at 10 µM (A498): < 10%; inhibition at 10 µM (ACHN): < 10%; inhibition at 10 µM (RXF 393): < 10%; inhibition at 10 µM (SN12C): < 10%; inhibition at 10 µM (TK-10): < 10%; inhibition at 10 µM (UO-31): < 10%; inhibition at 10 µM (PC-3): < 10%; inhibition at 10 µM (DU-145): < 10%; inhibition at 10 µM (BT-549): < 10%; inhibition at 10 µM (T-47D): 15.1%; inhibition at 10 µM (NCI60 cell lines panel): < 10%
N#Cc1c(-c2ccc(F)cc2)nc(SCc2ccc([N+](=O)[O-])cc2)nc1N1CCN(c2ccccc2)CC1 [4o, 4-(4-Fluorophenyl)-2-((4-nitrobenzyl)thio)-6-(4-phenylpiperazin-1-yl)pyrimidine-5-carbonitrile]	< 10%	< 10%	15.3%	13.9%	< 10%	< 10%	< 10%	< 10%	< 10%	< 10%	< 10%	< 10%	< 10%	12.4%	< 10%	< 10%	< 10%	< 10%	< 10%	< 10%	inhibition at 10 µM (NCI/ADR-RES): < 10%; inhibition at 10 µM (786–0): < 10%; inhibition at 10 µM (A498): < 10%; inhibition at 10 µM (ACHN): < 10%; inhibition at 10 µM (RXF 393): < 10%; inhibition at 10 µM (SN12C): < 10%; inhibition at 10 µM (TK-10): < 10%; inhibition at 10 µM (UO-31): < 10%; inhibition at 10 µM (PC-3): < 10%; inhibition at 10 µM (DU-145): < 10%; inhibition at 10 µM (BT-549): < 10%; inhibition at 10 µM (T-47D): < 10%; inhibition at 10 µM (NCI60 cell lines panel): < 10%
Cc1ccc(CSc2nc(-c3ccc(F)cc3)c(C#N)c(N3CCNCC3)n2)cc1 [4h, 4-(4-Fluorophenyl)-2-((4-methylbenzyl)thio)-6-(piperazin-1-yl)pyrimidine-5-carbonitrile]	< 10%	< 10%	< 10%	< 10%	< 10%	< 10%	< 10%	< 10%	< 10%	< 10%	< 10%	< 10%	< 10%	19.5%	< 10%	< 10%	< 10%	< 10%	< 10%	< 10%	inhibition at 10 µM (NCI/ADR-RES): < 10%; inhibition at 10 µM (786–0): < 10%; inhibition at 10 µM (A498): < 10%; inhibition at 10 µM (ACHN): < 10%; inhibition at 10 µM (RXF 393): < 10%; inhibition at 10 µM (SN12C): < 10%; inhibition at 10 µM (TK-10): < 10%; inhibition at 10 µM (UO-31): 12.1%; inhibition at 10 µM (PC-3): < 10%; inhibition at 10 µM (DU-145): < 10%; inhibition at 10 µM (BT-549): < 10%; inhibition at 10 µM (T-47D): < 10%; One-dose activity over the NCI60 panel (NCI60 cell lines panel; 10 μM): inactive; inhibition at 10 µM (NCI60 cell lines panel): < 10%
